From ChEMBL document CHEMBL1909046, “DrugMatrix in vitro pharmacology data”

Assays:
[1] = target: T1, Alpha-1B adrenergic receptor (Rattus norvegicus, UniProt P15823); test: DRUGMATRIX: Alpha-1B adrenergic receptor radioligand binding (ligand: prazosin); type: cell membranes, Wistar, Liver, Membrane; conditions: Not Active = under 50% inhibition at 10 µM
T1 sequence (P15823 whole entry): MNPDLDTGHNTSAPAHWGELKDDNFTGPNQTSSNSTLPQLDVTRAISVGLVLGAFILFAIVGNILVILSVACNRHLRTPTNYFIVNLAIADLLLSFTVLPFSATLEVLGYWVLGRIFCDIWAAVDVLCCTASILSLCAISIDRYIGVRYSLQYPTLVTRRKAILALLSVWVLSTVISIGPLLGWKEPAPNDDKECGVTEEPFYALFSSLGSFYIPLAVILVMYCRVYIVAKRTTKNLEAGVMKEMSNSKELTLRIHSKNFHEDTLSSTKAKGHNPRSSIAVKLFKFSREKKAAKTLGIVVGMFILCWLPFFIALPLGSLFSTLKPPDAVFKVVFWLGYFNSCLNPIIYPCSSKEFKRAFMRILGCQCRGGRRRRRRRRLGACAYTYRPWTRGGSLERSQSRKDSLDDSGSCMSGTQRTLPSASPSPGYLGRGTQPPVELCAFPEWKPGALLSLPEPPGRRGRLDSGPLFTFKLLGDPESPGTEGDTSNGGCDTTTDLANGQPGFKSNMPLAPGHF

Adenosine receptor A3 = target: T2, Adenosine receptor A3 (Homo sapiens, UniProt P0DMS8); type: cell membranes, CHO-K1, Membrane; conditions: cho-k1;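 further: radioligand binding assay with AB-MECA serving as the labeled ligand; in other assays of this panel Not Active means under 50% inhibition at 10 µM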
T2 sequence (P0DMS8 whole entry): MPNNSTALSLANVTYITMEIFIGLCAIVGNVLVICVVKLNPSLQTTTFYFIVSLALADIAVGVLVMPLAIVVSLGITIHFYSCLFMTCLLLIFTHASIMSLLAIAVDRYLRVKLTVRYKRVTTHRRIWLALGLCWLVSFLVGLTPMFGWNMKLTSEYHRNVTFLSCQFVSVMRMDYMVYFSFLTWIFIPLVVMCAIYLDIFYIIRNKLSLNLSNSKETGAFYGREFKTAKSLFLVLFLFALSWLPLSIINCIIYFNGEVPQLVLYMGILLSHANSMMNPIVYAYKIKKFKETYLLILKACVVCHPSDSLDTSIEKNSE

[2] = target: T3, 5-hydroxytryptamine receptor 2C (Homo sapiens, UniProt P28335); test: DRUGMATRIX: Serotonin (5-Hydroxytryptamine) 5-HT2C radioligand binding (ligand: [3H] Mesulergine); type: cell membranes, CHO-K1, Membrane; conditions: cho-k1; Not Active = under 50% inhibition at 10 µM
T3 sequence (P28335 whole entry): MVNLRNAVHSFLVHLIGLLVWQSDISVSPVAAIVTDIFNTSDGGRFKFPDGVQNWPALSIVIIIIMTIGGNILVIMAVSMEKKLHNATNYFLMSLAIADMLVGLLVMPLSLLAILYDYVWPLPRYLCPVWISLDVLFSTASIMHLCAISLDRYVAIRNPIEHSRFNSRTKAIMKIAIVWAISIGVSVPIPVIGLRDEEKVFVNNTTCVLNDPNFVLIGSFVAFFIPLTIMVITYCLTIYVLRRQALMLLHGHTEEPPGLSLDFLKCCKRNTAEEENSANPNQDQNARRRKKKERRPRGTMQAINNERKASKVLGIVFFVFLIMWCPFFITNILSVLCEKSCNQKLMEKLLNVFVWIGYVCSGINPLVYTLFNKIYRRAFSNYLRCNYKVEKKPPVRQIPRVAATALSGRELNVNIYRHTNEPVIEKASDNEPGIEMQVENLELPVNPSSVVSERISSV

[3] = target: Matrix metalloproteinase-9 (Homo sapiens, UniProt P14780); type: cell-based;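 further: inhibition of isolated MMP-9 enzyme activity toward a synthetic peptide substrate, from the DrugMatrix protease screening panel; in other assays of this panel Not Active means under 50% inhibition at 10 µM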
Matrix metalloproteinase-9, sequence (P14780 whole entry): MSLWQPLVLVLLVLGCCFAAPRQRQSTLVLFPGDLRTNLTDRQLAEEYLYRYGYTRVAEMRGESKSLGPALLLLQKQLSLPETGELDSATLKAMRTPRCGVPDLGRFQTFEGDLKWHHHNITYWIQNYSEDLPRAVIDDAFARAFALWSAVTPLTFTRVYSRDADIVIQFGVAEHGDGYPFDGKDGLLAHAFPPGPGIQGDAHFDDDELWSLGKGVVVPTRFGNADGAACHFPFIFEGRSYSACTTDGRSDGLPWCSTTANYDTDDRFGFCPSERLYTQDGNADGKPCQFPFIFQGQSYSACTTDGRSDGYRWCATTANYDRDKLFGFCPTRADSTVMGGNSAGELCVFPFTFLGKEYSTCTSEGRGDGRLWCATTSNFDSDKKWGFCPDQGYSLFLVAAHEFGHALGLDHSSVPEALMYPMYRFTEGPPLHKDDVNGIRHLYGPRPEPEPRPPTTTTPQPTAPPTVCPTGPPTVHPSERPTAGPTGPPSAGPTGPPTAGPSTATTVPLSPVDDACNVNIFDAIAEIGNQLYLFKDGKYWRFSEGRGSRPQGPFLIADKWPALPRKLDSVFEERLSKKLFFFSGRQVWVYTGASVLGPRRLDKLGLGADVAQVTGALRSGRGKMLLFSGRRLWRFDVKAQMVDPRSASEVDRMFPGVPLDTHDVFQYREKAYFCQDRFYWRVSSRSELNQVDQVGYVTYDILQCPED

[4] = DRUGMATRIX: Calcium Channel Type L, Dihydropyridine radioligand binding (ligand: [3H] Nitrendipine); type: cell membranes, Rattus norvegicus, Wistar, Cerebral cortex, Membrane; conditions: Not Active = under 50% inhibition at 10 µM
[5] = target: Sigma non-opioid intracellular receptor 1 (Homo sapiens, UniProt Q99720); test: DRUGMATRIX: Sigma1 radioligand binding (ligand: [3H] Haloperidol); type: cell membranes, Jurkat, Membrane; conditions: jurkat; Not Active = under 50% inhibition at 10 µM
Sigma non-opioid intracellular receptor 1, sequence (Q99720 whole entry): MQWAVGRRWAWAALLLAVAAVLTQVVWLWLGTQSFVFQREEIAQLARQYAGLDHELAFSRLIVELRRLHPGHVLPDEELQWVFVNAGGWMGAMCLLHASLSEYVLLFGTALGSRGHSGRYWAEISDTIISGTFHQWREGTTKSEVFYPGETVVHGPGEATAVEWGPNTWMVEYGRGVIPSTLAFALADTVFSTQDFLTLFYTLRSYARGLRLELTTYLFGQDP

[6] = DRUGMATRIX: Calcium Channel Type L, Phenylalkylamine radioligand binding (ligand: [3H] (-)-Desmethoxyverapamil (D-888)); type: cell membranes, Rattus norvegicus, Wistar, Brain, Membrane; conditions: Not Active = under 50% inhibition at 10 µM
Calcitonin receptor = target: T4, Calcitonin receptor (Homo sapiens, UniProt P30988); type: cell membranes, Membrane; conditions: t47d; further: in other assays of this panel Not Active means under 50% inhibition at 10 µM
T4 sequence (P30988 whole entry): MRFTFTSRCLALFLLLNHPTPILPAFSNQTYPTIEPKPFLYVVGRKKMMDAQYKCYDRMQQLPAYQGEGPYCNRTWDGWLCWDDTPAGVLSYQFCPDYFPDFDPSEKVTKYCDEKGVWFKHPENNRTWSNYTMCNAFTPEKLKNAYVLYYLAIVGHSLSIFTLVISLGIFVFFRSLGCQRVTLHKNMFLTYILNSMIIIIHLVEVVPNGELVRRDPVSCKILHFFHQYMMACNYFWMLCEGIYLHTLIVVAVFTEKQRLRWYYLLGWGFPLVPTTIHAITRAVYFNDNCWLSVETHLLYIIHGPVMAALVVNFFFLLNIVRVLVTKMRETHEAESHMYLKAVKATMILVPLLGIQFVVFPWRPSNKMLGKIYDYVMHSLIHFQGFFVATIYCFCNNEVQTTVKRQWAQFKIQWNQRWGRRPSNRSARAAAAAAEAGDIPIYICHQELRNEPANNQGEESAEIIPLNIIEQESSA

Cytochrome P450 2D6 = Cytochrome P450 2D6 (Homo sapiens, UniProt P10635); conditions: bti-tn-5b1-4; further: in other assays of this panel Not Active means under 50% inhibition at 10 µM
Cytochrome P450 2D6, sequence (P10635 whole entry): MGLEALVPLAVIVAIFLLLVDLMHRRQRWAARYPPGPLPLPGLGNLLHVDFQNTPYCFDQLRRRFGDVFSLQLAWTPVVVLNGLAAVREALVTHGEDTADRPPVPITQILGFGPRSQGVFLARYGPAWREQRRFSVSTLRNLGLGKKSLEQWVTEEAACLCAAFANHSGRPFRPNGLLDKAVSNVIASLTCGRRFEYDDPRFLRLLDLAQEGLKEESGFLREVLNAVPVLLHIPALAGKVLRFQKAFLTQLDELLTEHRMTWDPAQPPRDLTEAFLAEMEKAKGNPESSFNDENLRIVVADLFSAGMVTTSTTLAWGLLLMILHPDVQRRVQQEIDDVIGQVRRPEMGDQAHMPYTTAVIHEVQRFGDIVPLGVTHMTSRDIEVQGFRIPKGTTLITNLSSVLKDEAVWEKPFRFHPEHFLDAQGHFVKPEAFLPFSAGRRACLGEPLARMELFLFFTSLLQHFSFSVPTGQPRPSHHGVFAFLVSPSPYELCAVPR

[7] = DRUGMATRIX: Phorbol Ester radioligand binding (ligand: [3H] PDBu); type: cell membranes, Mus musculus, ICR, Brain, Membrane; conditions: Not Active = under 50% inhibition at 10 µM
[8] = DRUGMATRIX: Tumor Necrosis Factor (TNF), Non-Selective radioligand binding (ligand: [125I] TNF-alpha); type: cell membranes, Membrane; conditions: u-937; Not Active = under 50% inhibition at 10 µM
[9] = DRUGMATRIX: GABAA, Muscimol, Central radioligand binding (ligand: [3H] Muscimol); type: cell membranes, Rattus norvegicus, Wistar, Brain, Membrane; conditions: Not Active = under 50% inhibition at 10 µM
[10] = DRUGMATRIX: ATPase, Na+/K+ enzyme inhibition (substrate: ATP); type: tissue-based, Sus scrofa, Heart; conditions: Not Active = under 50% inhibition at 10 µM
Cytochrome P450 2C9 = Cytochrome P450 2C9 (Homo sapiens, UniProt P11712); conditions: bti-tn-5b1-4; further: in other assays of this panel Not Active means under 50% inhibition at 10 µM
Cytochrome P450 2C9, sequence (P11712 whole entry): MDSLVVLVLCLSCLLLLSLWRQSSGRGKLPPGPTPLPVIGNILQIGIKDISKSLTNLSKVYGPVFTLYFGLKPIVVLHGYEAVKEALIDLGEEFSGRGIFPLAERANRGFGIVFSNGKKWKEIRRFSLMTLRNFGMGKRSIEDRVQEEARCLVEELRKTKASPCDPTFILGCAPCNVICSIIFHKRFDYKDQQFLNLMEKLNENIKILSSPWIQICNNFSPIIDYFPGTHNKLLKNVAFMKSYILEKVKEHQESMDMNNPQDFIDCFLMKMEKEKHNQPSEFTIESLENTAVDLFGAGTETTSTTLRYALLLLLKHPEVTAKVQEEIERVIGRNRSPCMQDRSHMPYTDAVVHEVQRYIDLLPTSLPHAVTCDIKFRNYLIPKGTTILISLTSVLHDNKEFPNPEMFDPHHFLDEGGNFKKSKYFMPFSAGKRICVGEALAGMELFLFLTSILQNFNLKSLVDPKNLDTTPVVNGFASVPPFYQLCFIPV

O=c1[nH]cc(F)c(=O)[nH]1 [FLUOROURACIL]
Not Active: IC50 [1] | IC50 (Adenosine receptor A3) | IC50 [2] | IC50 [3] | IC50 [4] | Ki [4] | IC50 [5] | IC50 [6] | Ki [6] | IC50 (Calcitonin receptor) | IC50 (Cytochrome P450 2D6) | Ki (Cytochrome P450 2D6) | IC50 [7] | Ki [7] | IC50 [8] | Ki [8] | IC50 [9] | Ki [9] | IC50 [10] | Ki [10] | IC50 (Cytochrome P450 2C9) | Ki (Cytochrome P450 2C9)

NCC1(CC(=O)O)CCCCC1 [GABAPENTIN]
Not Active: IC50 [1] | IC50 (Adenosine receptor A3) | IC50 [2] | IC50 [3] | IC50 [4] | Ki [4] | IC50 [5] | IC50 [6] | Ki [6] | IC50 (Calcitonin receptor) | IC50 (Cytochrome P450 2D6) | Ki (Cytochrome P450 2D6) | IC50 [7] | Ki [7] | IC50 [8] | Ki [8] | IC50 [9] | Ki [9] | IC50 [10] | Ki [10] | IC50 (Cytochrome P450 2C9) | Ki (Cytochrome P450 2C9)

CC[N+](CC)(CC)CCOc1cccc(OCC[N+](CC)(CC)CC)c1OCC[N+](CC)(CC)CC.[I-].[I-].[I-] [GALLAMINE TRIETHIODIDE]
Not Active: IC50 [1] | IC50 (Adenosine receptor A3) | IC50 [2] | IC50 [3] | IC50 [4] | Ki [4] | IC50 [5] | IC50 [6] | Ki [6] | IC50 (Calcitonin receptor) | IC50 (Cytochrome P450 2D6) | Ki (Cytochrome P450 2D6) | IC50 [7] | Ki [7] | IC50 [8] | Ki [8] | IC50 [9] | Ki [9] | IC50 [10] | Ki [10] | IC50 (Cytochrome P450 2C9) | Ki (Cytochrome P450 2C9)

Nc1nc2c(ncn2COC(CO)CO)c(=O)[nH]1 [GANCICLOVIR]
Not Active: IC50 [1] | IC50 (Adenosine receptor A3) | IC50 [2] | IC50 [3] | IC50 [4] | Ki [4] | IC50 [5] | IC50 [6] | Ki [6] | IC50 (Calcitonin receptor) | IC50 (Cytochrome P450 2D6) | Ki (Cytochrome P450 2D6) | IC50 [7] | Ki [7] | IC50 [8] | Ki [8] | IC50 [9] | Ki [9] | IC50 [10] | Ki [10] | IC50 (Cytochrome P450 2C9) | Ki (Cytochrome P450 2C9)

COc1c(N2CCNC(C)C2)c(F)cc2c(=O)c(C(=O)O)cn(C3CC3)c12 (centres undefined) [GATIFLOXACIN]
Not Active: IC50 [1] | IC50 (Adenosine receptor A3) | IC50 [2] | IC50 [3] | IC50 [4] | Ki [4] | IC50 [5] | IC50 [6] | Ki [6] | IC50 (Calcitonin receptor) | IC50 (Cytochrome P450 2D6) | Ki (Cytochrome P450 2D6) | IC50 [7] | Ki [7] | IC50 [8] | Ki [8] | IC50 [9] | Ki [9] | IC50 [10] | Ki [10] | IC50 (Cytochrome P450 2C9) | Ki (Cytochrome P450 2C9)

CC1(C)[C@@H](O[C@H]2O[C@H](C(=O)O)[C@@H](O)[C@H](O)[C@H]2O[C@@H]2O[C@H](C(=O)O)[C@@H](O)[C@H](O)[C@H]2O)CC[C@]2(C)[C@H]3C(=O)C=C4[C@@H]5C[C@@](C)(C(=O)O)CC[C@]5(C)CC[C@@]4(C)[C@]3(C)CC[C@@H]12 [GLYCYRRHIZIN]
Not Active: IC50 [1] | IC50 (Adenosine receptor A3) | IC50 [2] | IC50 [3] | IC50 [4] | Ki [4] | IC50 [5] | IC50 [6] | Ki [6] | IC50 (Calcitonin receptor) | IC50 (Cytochrome P450 2D6) | Ki (Cytochrome P450 2D6) | IC50 [7] | Ki [7] | IC50 [8] | Ki [8] | IC50 [9] | Ki [9] | IC50 [10] | Ki [10] | IC50 (Cytochrome P450 2C9) | Ki (Cytochrome P450 2C9)

COC1=CC(=O)C[C@@H](C)[C@]12Oc1c(Cl)c(OC)cc(OC)c1C2=O [GRISEOFULVIN]
Not Active: IC50 [1] | IC50 (Adenosine receptor A3) | IC50 [2] | IC50 [3] | IC50 [4] | Ki [4] | IC50 [5] | IC50 [6] | Ki [6] | IC50 (Calcitonin receptor) | IC50 (Cytochrome P450 2D6) | Ki (Cytochrome P450 2D6) | IC50 [7] | Ki [7] | IC50 [8] | Ki [8] | IC50 [9] | Ki [9] | IC50 [10] | Ki [10] | IC50 (Cytochrome P450 2C9) | Ki (Cytochrome P450 2C9)
